Measured values as given in patent publication US9023865B2, “Compounds that are ERK inhibitors” (Merck Sharp & Dohme Corp., priority 2011, dated 2015).
Like-named read-outs stand apart in the source and are kept apart here.

Target: Active Human ERK2 (hERK2) (Homo sapiens (Human), UniProt P28482)
Assay: Active Human ERK2 (hERK2) Activity Assay (IMAP-FP)
Type: biochemical
Experimental: Assays Active Human ERK2 (hERK2) Activity Assay:
Activated ERK2 activity was determined in an IMAP-FP assay (Molecular Devices). […] The final reaction in each well of 25 μL consists of 0.5 nM hERK2, 900 nM unlabeled peptide, 80 nM labeled-peptide, and 30 μM ATP. Phosphorylation reactions were allowed to proceed for 60 minutes and were immediately quenched by the addition of […] IMAP detection beads (1:1000 dilutions) in IMAP binding buffer (Molecular Devices) with 24 mM NaCl. Plates were read on EnVision reader after 60 minutes binding equilibration using Fluorescence Polarization protocol (Perkin Elmer).

[1] = phosphorylated active hERK2, 30 μM ATP, average, read-out: ERK 2 Human average IC50

Sequence of Active Human ERK2 (hERK2) (P28482 whole entry): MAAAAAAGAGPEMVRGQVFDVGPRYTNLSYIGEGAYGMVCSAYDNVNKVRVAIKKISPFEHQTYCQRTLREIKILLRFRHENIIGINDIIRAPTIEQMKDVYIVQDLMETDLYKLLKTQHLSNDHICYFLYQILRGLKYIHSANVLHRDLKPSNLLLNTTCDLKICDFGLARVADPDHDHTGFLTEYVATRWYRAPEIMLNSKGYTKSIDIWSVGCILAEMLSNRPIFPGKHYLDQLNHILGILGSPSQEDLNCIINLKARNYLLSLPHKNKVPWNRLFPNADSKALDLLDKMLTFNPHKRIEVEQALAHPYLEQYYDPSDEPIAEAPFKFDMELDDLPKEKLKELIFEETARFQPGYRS

Row | Compound | IC50 [1] [nM] | IC50 (read-out: AERK2 IC50 (Active human ERK2 Activity Assay)) [nM]
1 | COC[C@@H](NC(=O)Nc1cc2[nH]nc(-c3cc(C)on3)c2cn1)c1ccccc1 [Example 683] | 4.36 | 
2 | Cc1cc(-c2n[nH]c3cc(NC(=O)N[C@H](C)C4CCC4)ncc23)ccn1 [Example 595] | 3.46 | 
3 | O=C(NCC1CCC1)Nc1cc2[nH]nc(-c3ccc(F)cc3)c2cn1 [Example 592] | 2.88 | 
4 | CCc1c(NC(=O)N[C@H](C)c2ccccc2)ncc2c(-c3ccnc(C)c3)n[nH]c12 [Example 175] | 6.68 | 
5 | C[C@@H](NC(=O)Nc1cc2[nH]nc(C3CC3)c2cn1)c1ccc(F)c(Cl)c1 [Example 82, 1-[(1R)-1-(3-chloro-4-fluorophenyl)ethyl]-3-(3-cyclopropyl-1H-pyrazolo[4,3-c]pyridin-6-yl)urea] | 10.8 | 
6 | Cc1cc(-c2n[nH]c3cc(NC(=O)N[C@H]4CN(C)C[C@@H]4C4CCOCC4)ncc23)ccn1 [Example 210] | 96.8 | 
7 | Cc1cccc(CNC(=O)Nc2cc3[nH]nc(C(F)F)c3cn2)n1 [Example 695] | 155 | 
8 | Cc1cc(-c2n[nH]c3cc(NC(=O)NC4CC(=O)Nc5ccccc54)ncc23)ccn1 (stereo not drawn) [Example 407] | 5.72 | 
9 | Cc1cc(-c2n[nH]c3cc(NC(=O)NC(CS(C)(=O)=O)c4ccccc4)ncc23)ccn1 (stereo not drawn) [Example 566] | 0.313 | 
10 | CN1C[C@@H](NC(=O)Nc2cc3[nH]nc(-c4ccc(F)cc4)c3cn2)[C@H](c2ccccc2)C12COC2 [Example 557] | 1.86 | 
11 | Cc1cc(-c2n[nH]c3cc(NC(=O)NCc4ccccc4OC(F)F)ncc23)ccn1 [Example 441] | 0.309 | 
12 | CCC(C)C(NC(=O)Nc1cc2[nH]nc(-c3ccnc(C)c3)c2cn1)c1ccc(Cl)cc1 (stereo not drawn) [Example 404] | 11.1 | 
13 | C[C@@H](NC(=O)Nc1cc2[nH]nc(-c3ccc4nnn(C)c4c3)c2cn1)c1ccc(F)cc1 [Example 260] | 0.309 | 
14 | CC(C)CN(C)c1ncc(-c2n[nH]c3cc(NC(=O)N[C@H](C)c4ccc(F)cc4)ncc23)cn1 [Example 309] | 44.5 | 
15 | Cc1cc(-c2n[nH]c3cc(NC(=O)NCc4ccc(Cl)cc4Cl)ncc23)ccn1 [Example 443] | 11.8 | 
16 | CC[C@@H](NC(=O)Nc1cc2[nH]nc(-c3ccnc(C)c3)c2cn1)c1ccccn1 [Example 218] | 0.487 | 
17 | CC[C@@H](NC(=O)Nc1cc2[nH]nc(-c3ccnc(C)c3)c2cn1)c1ccc(Cl)cc1 [Example 414] | 0.755 | 
18 | Cc1cc(-c2n[nH]c3cc(NC(=O)NC(CCN(C)C)c4ccccn4)ncc23)ccn1 (stereo not drawn) [Example 353] | 1.56 | 
19 | Cc1cc(-c2n[nH]c3cc(NC(=O)NCc4cc(C)on4)ncc23)ccn1 [Example 470] | 4.12 | 
20 | C[C@@H](NC(=O)Nc1cc2[nH]nc(C3CCC3)c2cn1)c1ccc(F)cc1 [Example 144] | 3.46 | 
21 | CC(=O)OC1CCCC(NC(=O)Nc2cc3[nH]nc(-c4ccnc(C)c4)c3cn2)C1 (stereo not drawn) [Example 381] | 6.71 | 
22 | Cc1cc(-c2n[nH]c3cc(NC(=O)N[C@H](C)c4ccccc4)ncc23)cc(C)n1 [Example 31, 1-[3-(2,6-dimethylpyridin-4-yl)-1H-pyrazolo[4,3-c]pyridin-6-yl]-3-[(1R)-1-phenylethyl]urea] | 0.29 | 0.2 to 1.7
23 | Cc1cc(-c2n[nH]c3cc(NC(=O)NC4COc5ccccc5C4)ncc23)ccn1 (stereo not drawn) [Example 467] | 1.25 | 

Row | Compound | IC50 [1] [nM] | IC50 (read-out: AERK2 IC50 (Active human ERK2 Activity Assay)) [nM]
24 | CC(CNC(=O)Nc1cc2[nH]nc(-c3ccc(F)cc3)c2cn1)N(C)C (stereo not drawn) [Example 227] | 25.8 | 
25 | C[C@@H](NC(=O)Nc1cc2[nH]nc(-c3ccc(C#N)cc3)c2cn1)c1cccc(Cl)c1 [Example 84, 1-[(1R)-1-(3-chlorophenyl)ethyl]-3-[3-(4-cyanophenyl)-1H-pyrazolo[4,3-c]pyridin-6-yl]urea] | 6.11 | 
26 | C[C@@H](NC(=O)Nc1cc2[nH]nc(C(N)C(F)(F)F)c2cn1)c1ccccc1 (stereo partly drawn) [Example 563, 1-(3-(1-amino-2,2,2-trifluoroethyl)-1H-pyrazolo[4,3-c]pyridin-6-yl)-3-((R)-1-phenylethyl)urea] | 251 | 
27 | Cc1cc(-c2n[nH]c3cc(NC(=O)N[C@@H]4CN(C)C[C@H]4c4ccccc4)ncc23)ccn1 [Example 181] | 0.217 | 
28 | O=C(Nc1cc2[nH]nc(C(F)F)c2cn1)NC1Cc2ccccc2C1O (stereo not drawn) [Example 696] | 175 | 
29 | Cc1cc(-c2n[nH]c3cc(NC(=O)NC4CC(=O)Nc5ccc(F)cc54)ncc23)ccn1 (stereo not drawn) [Example 396] | 8.46 | 
30 | C[C@@H](NC(=O)Nc1cc2[nH]nc(C(=O)NCc3cccnn3)c2cn1)c1ccccc1 [Example 122] | 2.55 | 
31 | CCCC(=O)c1n[nH]c2cc(NC(=O)N[C@H](COC)c3ccccc3)ncc12 [Example 684] | 26.8 | 
32 | COCCNC(=O)Nc1cc2[nH]nc(-c3ccc(C#N)cc3)c2cn1 [Example 624, 1-[3-(4-Cyanophenyl)-1H-pyrazolo[4,3-c]pyridin-6-yl]-3-(2-methoxyethyl)urea] | 4.38 | 
33 | Cc1cc(-c2n[nH]c3cc(NC(=O)N[C@@H]4CCOc5cc(C#N)ccc54)ncc23)ccn1 [Example 266] | 70.6 | 
34 | C[C@@H](NC(=O)Nc1cc2[nH]nc(C(=O)N(C)C)c2cn1)c1ccccc1 [Example 139] | 570 | 
35 | Cc1cc(-c2n[nH]c3cc(NC(=O)N[C@H](C)c4ncccc4F)ncc23)ccn1 [Example 232] | 0.699 | 
36 | Cc1cc(-c2n[nH]c3cc(NC(=O)NCCC(=O)Nc4ccccc4Br)ncc23)ccn1 [Example 399] | 2.06 | 
37 | Cc1cc(-c2n[nH]c3cc(NC(=O)NC4CCCC(Oc5cccc(F)c5)C4)ncc23)ccn1 (stereo not drawn) [Example 658] | 66.9 | 
38 | Cc1cc(-c2n[nH]c3cc(NC(=O)NCC4CNC4)ncc23)ccn1 [Example 586] | 1.3 | 
39 | C[C@@H](NC(=O)Nc1cc2[nH]nc(C(=O)NCC3(O)CC3)c2cn1)c1ccccc1 [Example 124] | 6.38 | 
40 | Cc1cc(-c2n[nH]c3cc(NC(=O)NCC4CCC4)ncc23)ccn1 [Example 574] | 1.41 | 
41 | COC[C@@H](NC(=O)Nc1cc2[nH]nc(-c3ccnc(C#N)c3)c2cn1)c1ccc(F)cc1 [Example 304] | 1.75 | 
42 | Cc1cc(-c2n[nH]c3cc(NC(=O)NCc4cnoc4)ncc23)ccn1 [Example 437] | 1.95 | 
43 | Cc1cc(-c2n[nH]c3cc(NC(=O)NCc4cnc(C)s4)ncc23)ccn1 [Example 434] | 1.14 | 
44 | COc1cc(CNC(=O)Nc2cc3[nH]nc(-c4ccnc(C)c4)c3cn2)on1 [Example 472] | 11.1 | 
45 | Cc1cc(-c2n[nH]c3cc(NC(=O)NCc4ccns4)ncc23)ccn1 [Example 429] | 1.12 | 
46 | Cc1cc(-c2n[nH]c3c(C)c(NC(=O)N[C@H](C)c4ccccc4)ncc23)ccn1 [Example 174, (R)-1-(7-Methyl-3-(2-methylpyridin-4-yl)-1H-pyrazolo[4,3-c]pyridin-6-yl)-3-(1-phenylethyl)urea] | 1.58 | 

Row | Compound | IC50 [1] [nM] | IC50 (read-out: AERK2 IC50 (Active human ERK2 Activity Assay)) [nM]
47 | Cc1cc(-c2n[nH]c3cc(NC(=O)NCC(=O)O)ncc23)ccn1 [Example 462] | 356 | 
48 | CC(C)Oc1ccc(-c2n[nH]c3cc(NC(=O)N[C@H](C)c4ccc(F)cc4)ncc23)cn1 [Example 250] | 2.36 | 
49 | Cc1cc(-c2n[nH]c3cc(NC(=O)N[C@@H](C)C(=O)O)ncc23)ccn1 [Example 454] | 237 | 
50 | CN1CCOC(CNC(=O)Nc2cc3[nH]nc(-c4ccc(F)cc4)c3cn2)C1 (stereo not drawn) [Example 226] | 1.58 | 
51 | C[C@@H](NC(=O)Nc1cc2[nH]nc(C3CC3)c2cn1)c1ccccn1 [Example 152] | 116 | 
52 | Cc1cc(-c2n[nH]c3cc(NC(=O)NC4CCc5cc(Cl)ccc54)ncc23)ccn1 (stereo not drawn) [Example 283] | 86 | 
53 | Cc1cc(-c2n[nH]c3cc(NC(=O)NCc4nc5ccccc5[nH]4)ncc23)ccn1 [Example 408] | 2 | 
54 | Cc1cc(-c2n[nH]c3cc(NC(=O)N[C@H]4CCOc5cc(F)ccc54)ncc23)ccn1 [Example 276, 1-[(4S)-7-fluoro-3,4-dihydro-2H-chromen-4-yl]-3-[3-(2-methylpyridin-4-yl)-1H-pyrazolo[4,3-c]pyridin-6-yl]urea] | 14.7 | 
55 | COC(=O)C1CC1c1n[nH]c2cc(NC(=O)N[C@H](C)c3ccccc3)ncc12 (stereo partly drawn) [Example 643] | 1.33 | 
56 | Cc1cc(-c2n[nH]c3cc(NC(=O)NC4CCNC4)ncc23)ccn1 (stereo not drawn) [Example 579] | 10.6 | 
57 | Cc1cc(-c2n[nH]c3cc(NC(=O)N[C@H]4CN(C)C[C@@H]4c4ccccc4)ncc23)ccn1 [Example 182] | 18.8 | 
58 | Cc1cc(-c2n[nH]c3cc(NC(=O)NCc4cccnn4)ncc23)ccn1 [Example 446] | 3.3 | 
59 | Cc1cc(-c2n[nH]c3cc(NC(=O)N[C@H](COCC(F)F)c4ccccc4)ncc23)no1 [Example 701] | 4.57 | 
60 | COCC(NC(=O)Nc1cc2[nH]nc(-c3ccnc(C)c3)c2cn1)c1ccccn1 (stereo not drawn) [Example 348] | 2.16 | 
61 | N#Cc1cccc(-c2n[nH]c3cc(NC(=O)NCc4ccc(F)cc4)ncc23)c1 [Example 673] | 5.41 | 
62 | Cc1cc(-c2n[nH]c3cc(NC(=O)NCC4(C)CCCO4)ncc23)ccn1 (stereo not drawn) [Example 463] | 1.58 | 
63 | Cc1cc(-c2n[nH]c3cc(NC(=O)NCC(O)C(F)F)ncc23)ccn1 (stereo not drawn) [Example 189] | 10.3 | 
64 | Cc1cc(-c2n[nH]c3cc(NC(=O)Nc4noc5ccccc45)ncc23)ccn1 [Example 337] | 1.4 | 
65 | C[C@@H](NC(=O)Nc1cc2[nH]nc(C(=O)N[C@@H]3CCN(O)C3=O)c2cn1)c1ccccc1 [Example 134] | 103 | 
66 | COC(=O)C1CC1c1n[nH]c2cc(NC(=O)N[C@H](C)c3ccccc3)ncc12 (stereo partly drawn) [Example 644] | 1.07 | 
67 | COC[C@@H](NC(=O)Nc1cc2[nH]nc(-c3ccnc(C)c3)c2cn1)c1ccccn1 [Example 416] | 0.78 | 
68 | Cc1cc(-c2n[nH]c3cc(NC(=O)NCc4ncn[nH]4)ncc23)ccn1 [Example 422] | 5.42 | 
